Experimental findings from patent US9321774B2, “Pyrrolobenzodiazepines” (MEDIMMUNE LIMITED, priority 2012, dated 2016) are described below.

In brackets after ≈: the same amount, converted by molar mass. Read-outs that look alike come from different tables or passages of the source.

What all share (test): CLSI broth microplate assay, MIC
What all share (type): cell-based

The test system of one assay is MRSA strain EMRSA-15. The settings on record: Staphylococcus aureus, read-out: Minimum inhibitory concentration (MIC mg/L) EMRSA-15.
The test system of a further assay is MRSA strain EMRSA-16. The settings on record: Staphylococcus aureus, read-out: Minimum inhibitory concentration (MIC mg/L) EMRSA-16.
Another assay relates to MRSA strain BB568. The settings on record: Staphylococcus aureus, read-out: Minimum inhibitory concentration (MIC mg/L) BB568.
In assay [1] the test system is community-associated MRSA isolate USA300. The settings on record: Staphylococcus aureus, read-out: Minimum inhibitory concentration (MIC mg/L) USA300.
In a further assay the test system is E. faecalis VRE1. The settings on record: Enterococcus faecalis.
The subject of a further assay is E. faecium VRE10. As to conditions: Enterococcus faecium.
The mark [2] stands for this setting: VRE1, read-out: Minimum inhibitory concentration (MIC mg/L) VRE1.
The mark [3] stands for this setting: VRE10, read-out: Minimum inhibitory concentration (MIC mg/L) VRE10.

For the molecule `COC(=O)c1cc2cc(NC(=O)c3cc(NC(=O)CCCOc4cc5c(cc4OC)C(=O)N4CCC[C@H]4C=N5)cn3C)ccc2s1` [Compound 28, (S)-methyl 5-(4-(4-((7-methoxy-5-oxo-2,3,5,11a-tetrahydro-1H-benzo[e]pyrrolo[1,2-a][1,4]diazepin-8-yl)oxy)butanamido)-1-methyl-1H-pyrrole-2-carboxamido)benzo[b]thiophene-2-carboxylate], the MIC in the assay with MRSA strain EMRSA-15 came to 0.06 mg/L (≈ 0.0932 µM); in the assay on MRSA strain EMRSA-16 it was 0.125 mg/L (≈ 0.194 µM); with MRSA strain BB568, 0.125 mg/L (≈ 0.194 µM); in assay [1], 0.06 mg/L (≈ 0.0932 µM); in the assay with E. faecalis VRE1 (setting [2]), 0.06 mg/L (≈ 0.0932 µM); in the assay with E. faecium VRE10 (setting [3]), 0.06 mg/L (≈ 0.0932 µM).

Turning to `COc1cc2c(cc1OCCCC(=O)Nc1cc(C(=O)Nc3ccc(N4CCOCC4)cc3)n(C)c1)N=C[C@@H]1CCCN1C2=O` [Compound 30, (S)-4-(4-((7-methoxy-5-oxo-2,3,5,11a-tetrahydro-1H-benzo[e]pyrrolo[1,2-a][1,4]diazepin-8-yl)oxy)butanamido)-1-methyl-N-(4-morpholinophenyl)-1H-pyrrole-2-carboxamide], the MIC worked out at 0.5 mg/L (≈ 0.813 µM) in the assay with MRSA strain EMRSA-15 (EMRSA-15, Mueller-Hinton broth, 37° C.); 2 mg/L (≈ 3.25 µM) in the assay on MRSA strain EMRSA-16 (EMRSA-16, Mueller-Hinton broth, 37° C.); 2 mg/L (≈ 3.25 µM) with MRSA strain BB568 (BB568, Mueller-Hinton broth, 37° C.); 0.5 mg/L (≈ 0.813 µM) in assay [1]; 1 mg/L (≈ 1.63 µM) in the assay with E. faecalis VRE1 (VRE1, Mueller-Hinton broth, 37° C., read-out: Minimum inhibitory concentration (MIC mg/L) VRE1); 0.5 mg/L (≈ 0.813 µM) with E. faecium VRE10 (VRE10, Mueller-Hinton broth, 37° C., read-out: Minimum inhibitory concentration (MIC mg/L) VRE10).

On to `COc1cc2c(cc1OCCCC(=O)Nc1cc(C(=O)Nc3ccc(N4CCOCC4)nc3)n(C)c1)N=C[C@@H]1CCCN1C2=O` [Compound 31, (S)-4-(4-((7-methoxy-5-oxo-2,3,5,11a-tetrahydro-1H-benzo[e]pyrrolo[1,2-a][1,4]diazepin-8-yl)oxy)butanamido)-1-methyl-N-(6-morpholinopyridin-3-yl)-1H-pyrrole-2-carboxamide], for which the MIC was 0.5 mg/L (≈ 0.812 µM) with MRSA strain EMRSA-15; 4 mg/L (≈ 6.5 µM) in the assay with MRSA strain EMRSA-16; 4 mg/L (≈ 6.5 µM) in the assay with MRSA strain BB568; 1 mg/L (≈ 1.62 µM) in assay [1]; 1 mg/L (≈ 1.62 µM) in the assay with E. faecalis VRE1 (setting [2]); 0.5 mg/L (≈ 0.812 µM) with E. faecium VRE10 (setting [3]).

For `COC(=O)c1cc2cc(NC(=O)c3nc(NC(=O)CCCOc4cc5c(cc4OC)C(=O)N4CCC[C@H]4C=N5)cn3C)ccc2s1` [Compound 35, (S)-methyl 5-(4-(4-((7-methoxy-5-oxo-2,3,5,11a-tetrahydro-1H-benzo[e]pyrrolo[1,2-a][1,4]diazepin-8-yl)oxy)butanamido)-1-methyl-1H-imidazole-2-carboxamido)benzo[b]thiophene-2-carboxylate], the MIC (in the assay on MRSA strain EMRSA-15; in the assay on MRSA strain EMRSA-16; with MRSA strain BB568; in assay [1]; in the assay with E. faecalis VRE1 (setting [2]); in the assay on E. faecium VRE10 (setting [3])) was 0.06 mg/L (≈ 0.0931 µM) each time.

Regarding `COc1cc2c(cc1OCCCC(=O)Nc1cn(C)c(C(=O)Nc3ccc(N4CCOCC4)cc3)n1)N=C[C@@H]1CCCN1C2=O` [Compound 37, (S)-4-(4-((7-methoxy-5-oxo-2,3,5,11a-tetrahydro-1H-benzo[e]pyrrolo[1,2-a][1,4]diazepin-8-yl)oxy)butanamido)-1-methyl-N-(4-morpholinophenyl)-1H-imidazole-2-carboxamide], the MIC with MRSA strain EMRSA-15 worked out at 0.125 mg/L (≈ 0.203 µM); in the assay on MRSA strain EMRSA-16, 0.5 mg/L (≈ 0.812 µM); in the assay on MRSA strain BB568, 0.5 mg/L (≈ 0.812 µM); in assay [1] it was 0.125 mg/L (≈ 0.203 µM); with E. faecalis VRE1 (setting [2]) it was 0.25 mg/L (≈ 0.406 µM); in the assay on E. faecium VRE10 (setting [3]) it was 0.125 mg/L (≈ 0.203 µM).

As to `COc1cc2c(cc1OCCCC(=O)Nc1cn(C)c(C(=O)Nc3ccc(N4CCOCC4)nc3)n1)N=C[C@@H]1CCCN1C2=O` [Compound 40, (S)-4-(4-((7-methoxy-5-oxo-2,3,5,11a-tetrahydro-1H-benzo[e]pyrrolo[1,2-a][1,4]diazepin-8-yl)oxy)butanamido)-1-methyl-N-(6-morpholinopyridin-3-yl)-1H-imidazole-2-carboxamide], the MIC is 0.125 mg/L (≈ 0.203 µM) in the assay with MRSA strain EMRSA-15; 0.5 mg/L (≈ 0.811 µM) with MRSA strain EMRSA-16; 0.5 mg/L (≈ 0.811 µM) with MRSA strain BB568; 0.125 mg/L (≈ 0.203 µM) in assay [1]; 0.25 mg/L (≈ 0.405 µM) in the assay with E. faecalis VRE1 (setting [2]); 0.125 mg/L (≈ 0.203 µM) in the assay on E. faecium VRE10 (setting [3]).
